# According to ChEMBL document CHEMBL3576778, “Structure-Activity Relationship Studies of a Series of Semisynthetic Lipopeptides Leading to the Discovery of Surotomycin, a Novel Cyclic Lipopeptide Being Developed for the Treatment of Clostridium difficile-Associated Diarrhea” (J Med Chem, 2015):
# What was measured:
# Clostridioides difficile [1] = assay: Antimicrobial activity against daptomycin-resistant Clostridium difficile NAP1 incubated anaerobically at 37 degC for 48 hrs by agar dilution method; type: functional; conditions: NAP1, 48 h
# Staphylococcus aureus [2] = assay: Antimicrobial activity against daptomycin-susceptible Staphylococcus aureus ATCC 29213 incubated anaerobically at 37 degC for 48 hrs by agar dilution method; type: functional; conditions: ATCC 29213, 48 h
# Enterococcus faecium = assay: Antimicrobial activity against daptomycin-resistant Enterococcus faecium ATCC 6569 incubated anaerobically at 37 degC for 48 hrs by agar dilution method; type: functional; conditions: ATCC 6569, 48 h
# Enterococcus faecalis = assay: Antimicrobial activity against daptomycin-resistant Enterococcus faecalis ATCC 49452 incubated anaerobically at 37 degC for 48 hrs by agar dilution method; type: functional; conditions: ATCC 49452, 48 h
# Staphylococcus aureus [3] = assay: Antimicrobial activity against daptomycin-non-susceptible Staphylococcus aureus 42 incubated anaerobically at 37 degC for 48 hrs by agar dilution method; type: functional; conditions: Staphylococcus aureus, 42, 48 h
# Staphylococcus aureus [4] = assay: Antimicrobial activity against daptomycin-non-susceptible Staphylococcus aureus 278 incubated anaerobically at 37 degC for 48 hrs by agar dilution method; type: functional; conditions: Staphylococcus aureus, 278, 48 h
# Staphylococcus aureus [5] = assay: Antimicrobial activity against daptomycin-non-susceptible Staphylococcus aureus 1145 incubated anaerobically at 37 degC for 48 hrs by agar dilution method; type: functional; conditions: Staphylococcus aureus, 1145, 48 h
# Staphylococcus aureus [6] = assay: Antimicrobial activity against daptomycin-non-susceptible Staphylococcus aureus 1146 incubated anaerobically at 37 degC for 48 hrs by agar dilution method; type: functional; conditions: Staphylococcus aureus, 1146, 48 h
# Staphylococcus aureus [7] = assay: Antimicrobial activity against daptomycin-non-susceptible Staphylococcus aureus 1179 incubated anaerobically at 37 degC for 48 hrs by agar dilution method; type: functional; conditions: Staphylococcus aureus, 1179, 48 h
# Staphylococcus aureus [8] = assay: Antimicrobial activity against daptomycin-non-susceptible Staphylococcus aureus 1326 incubated anaerobically at 37 degC for 48 hrs by agar dilution method; type: functional; conditions: Staphylococcus aureus, 1326, 48 h
# Staphylococcus aureus [9] = assay: Antimicrobial activity against daptomycin-non-susceptible Staphylococcus aureus 1616 incubated anaerobically at 37 degC for 48 hrs by agar dilution method; type: functional; conditions: Staphylococcus aureus, 1616, 48 h
# Staphylococcus aureus [10] = assay: Antimicrobial activity against daptomycin-non-susceptible Staphylococcus aureus 5003 incubated anaerobically at 37 degC for 48 hrs by agar dilution method; type: functional; conditions: Staphylococcus aureus, 5003, 48 h
# Staphylococcus aureus [11] = assay: Antimicrobial activity against daptomycin-non-susceptible Staphylococcus aureus 5004 incubated anaerobically at 37 degC for 48 hrs by agar dilution method; type: functional; conditions: Staphylococcus aureus, 5004, 48 h
# Staphylococcus aureus [12] = assay: Antimicrobial activity against daptomycin-non-susceptible Staphylococcus aureus 5005 incubated anaerobically at 37 degC for 48 hrs by agar dilution method; type: functional; conditions: Staphylococcus aureus, 5005, 48 h
# Staphylococcus aureus [13] = assay: Antimicrobial activity against daptomycin-non-susceptible Staphylococcus aureus 5006 incubated anaerobically at 37 degC for 48 hrs by agar dilution method; type: functional; conditions: Staphylococcus aureus, 5006, 48 h
# Staphylococcus aureus [14] = assay: Antimicrobial activity against daptomycin-non-susceptible Staphylococcus aureus 5008 incubated anaerobically at 37 degC for 48 hrs by agar dilution method; type: functional; conditions: Staphylococcus aureus, 5008, 48 h
# Staphylococcus aureus [15] = assay: Antimicrobial activity against daptomycin-non-susceptible Staphylococcus aureus 5010 incubated anaerobically at 37 degC for 48 hrs by agar dilution method; type: functional; conditions: Staphylococcus aureus, 5010, 48 h
# Staphylococcus aureus [16] = assay: Antimicrobial activity against daptomycin-non-susceptible Staphylococcus aureus 5012 incubated anaerobically at 37 degC for 48 hrs by agar dilution method; type: functional; conditions: Staphylococcus aureus, 5012, 48 h
# Staphylococcus aureus [17] = assay: Antimicrobial activity against daptomycin-non-susceptible Staphylococcus aureus 5014 incubated anaerobically at 37 degC for 48 hrs by agar dilution method; type: functional; conditions: Staphylococcus aureus, 5014, 48 h
# Staphylococcus aureus [18] = assay: Antimicrobial activity against daptomycin-non-susceptible Staphylococcus aureus 5016 incubated anaerobically at 37 degC for 48 hrs by agar dilution method; type: functional; conditions: Staphylococcus aureus, 5016, 48 h
# Staphylococcus aureus [19] = assay: Antimicrobial activity against daptomycin-non-susceptible Staphylococcus aureus 5017 incubated anaerobically at 37 degC for 48 hrs by agar dilution method; type: functional; conditions: Staphylococcus aureus, 5017, 48 h
# Staphylococcus aureus [20] = assay: Antimicrobial activity against daptomycin-non-susceptible Staphylococcus aureus 5030 incubated anaerobically at 37 degC for 48 hrs by agar dilution method; type: functional; conditions: Staphylococcus aureus, 5030, 48 h
# Staphylococcus aureus [21] = assay: Antimicrobial activity against daptomycin-non-susceptible Staphylococcus aureus 5033 incubated anaerobically at 37 degC for 48 hrs by agar dilution method; type: functional; conditions: Staphylococcus aureus, 5033, 48 h
# Staphylococcus aureus [22] = assay: Antimicrobial activity against daptomycin-non-susceptible Staphylococcus aureus 5034 incubated anaerobically at 37 degC for 48 hrs by agar dilution method; type: functional; conditions: Staphylococcus aureus, 5034, 48 h
# Staphylococcus aureus [23] = assay: Antimicrobial activity against daptomycin-non-susceptible Staphylococcus aureus 5059 incubated anaerobically at 37 degC for 48 hrs by agar dilution method; type: functional; conditions: Staphylococcus aureus, 5059, 48 h
# Staphylococcus aureus [24] = assay: Antimicrobial activity against daptomycin-non-susceptible Staphylococcus aureus 5060 incubated anaerobically at 37 degC for 48 hrs by agar dilution method; type: functional; conditions: Staphylococcus aureus, 5060, 48 h
# Staphylococcus aureus [25] = assay: Antimicrobial activity against daptomycin-non-susceptible Staphylococcus aureus 5063 incubated anaerobically at 37 degC for 48 hrs by agar dilution method; type: functional; conditions: Staphylococcus aureus, 5063, 48 h
# Staphylococcus aureus [26] = assay: Antimicrobial activity against daptomycin-non-susceptible Staphylococcus aureus 5076 incubated anaerobically at 37 degC for 48 hrs by agar dilution method; type: functional; conditions: Staphylococcus aureus, 5076, 48 h
# Staphylococcus aureus [27] = assay: Antimicrobial activity against daptomycin-non-susceptible Staphylococcus aureus 5080 incubated anaerobically at 37 degC for 48 hrs by agar dilution method; type: functional; conditions: Staphylococcus aureus, 5080, 48 h
# Staphylococcus aureus [28] = assay: Antimicrobial activity against daptomycin-non-susceptible Staphylococcus aureus 5081 incubated anaerobically at 37 degC for 48 hrs by agar dilution method; type: functional; conditions: Staphylococcus aureus, 5081, 48 h
# Staphylococcus aureus [29] = assay: Antimicrobial activity against daptomycin-non-susceptible Staphylococcus aureus 5091 incubated anaerobically at 37 degC for 48 hrs by agar dilution method; type: functional; conditions: Staphylococcus aureus, 5091, 48 h
# Clostridioides difficile [30] = assay: Antimicrobial activity against daptomycin-resistant Clostridium difficile ATCC 43596 infected in Syrian golden hamster model of Clostridium difficile-associated diarrhea assessed as protection against microbial infection by measuring survival at day 25 to 26 at 0.5 mg/kg treated once daily for 5 consecutive days starting 4 hrs after spore inoculation; type: functional
# Clostridioides difficile [31] = assay: Antimicrobial activity against vancomycin-resistant Clostridium difficile; type: functional
# Bacteroides fragilis = assay: Toxicity against Bacteroides fragilis assessed as inhibition of microbe growth; type: organism-based
compound,measurement,setting,value
CCCCCCCCCC(=O)N[C@@H](Cc1c[nH]c2ccccc12)C(=O)N[C@H](CC(N)=O)C(=O)N[C@@H](CC(=O)O)C(=O)N[C@@H]1C(=O)NCC(=O)N[C@@H](CCCN)C(=O)N[C@@H](CC(=O)O)C(=O)N[C@H](C)C(=O)N[C@@H](CC(=O)O)C(=O)NCC(=O)N[C@H](CO)C(=O)N[C@@H]([C@H](C)CC(=O)O)C(=O)N[C@@H](CC(=O)c2ccccc2N)C(=O)O[C@@H]1C,MIC,Clostridioides difficile [1],2 mg/L
same,MIC,Staphylococcus aureus [2],0.5 mg/L
same,MIC,Enterococcus faecium,> 32 mg/L
same,MIC,Enterococcus faecalis,> 32 mg/L
same,MIC,Staphylococcus aureus [3],0.5 mg/L
same,MIC,Staphylococcus aureus [4],16 mg/L
same,MIC,Staphylococcus aureus [5],1 mg/L
same,MIC,Staphylococcus aureus [6],1 mg/L
same,MIC,Staphylococcus aureus [7],2 mg/L
same,MIC,Staphylococcus aureus [8],4 mg/L
same,MIC,Staphylococcus aureus [9],16 mg/L
same,MIC,Staphylococcus aureus [10],2 mg/L
same,MIC,Staphylococcus aureus [11],1 mg/L
same,MIC,Staphylococcus aureus [12],4 mg/L
same,MIC,Staphylococcus aureus [13],2 mg/L
same,MIC,Staphylococcus aureus [14],2 mg/L
same,MIC,Staphylococcus aureus [15],0.5 mg/L
same,MIC,Staphylococcus aureus [16],2 mg/L
same,MIC,Staphylococcus aureus [17],0.5 mg/L
same,MIC,Staphylococcus aureus [18],4 mg/L
same,MIC,Staphylococcus aureus [19],4 mg/L
same,MIC,Staphylococcus aureus [20],8 mg/L
same,MIC,Staphylococcus aureus [21],1 mg/L
same,MIC,Staphylococcus aureus [22],2 mg/L
same,MIC,Staphylococcus aureus [23],4 mg/L
same,MIC,Staphylococcus aureus [24],4 mg/L
same,MIC,Staphylococcus aureus [25],8 mg/L
same,MIC,Staphylococcus aureus [26],2 mg/L
same,MIC,Staphylococcus aureus [27],4 mg/L
same,MIC,Staphylococcus aureus [28],4 mg/L
same,MIC,Staphylococcus aureus [29],2 mg/L
CCCCCCCCc1ccc(C(=O)N[C@@H](Cc2c[nH]c3ccccc23)C(=O)N[C@@H](CC(N)=O)C(=O)N[C@@H](CC(=O)O)C(=O)N[C@@H]2C(=O)NCC(=O)N[C@@H](CCCN)C(=O)N[C@H](CC(=O)O)C(=O)N[C@H](C)C(=O)N[C@@H](CC(=O)O)C(=O)NCC(=O)N[C@H](CO)C(=O)N[C@@H]([C@@H](C)CC(=O)O)C(=O)N[C@@H](CC(=O)c3ccccc3N)C(=O)O[C@@H]2C)cc1,MIC,Clostridioides difficile [1],1 mg/L
same,MIC,Staphylococcus aureus [2],0.5 mg/L
same,MIC,Enterococcus faecium,4 mg/L
same,MIC,Enterococcus faecalis,8 mg/L
same,survival at 0.5 mg/kg,Clostridioides difficile [30],20%
CCCCCCCc1csc(C(=O)N[C@@H](Cc2c[nH]c3ccccc23)C(=O)N[C@@H](CC(N)=O)C(=O)N[C@@H](CC(=O)O)C(=O)N[C@@H]2C(=O)NCC(=O)N[C@@H](CCCN)C(=O)N[C@H](CC(=O)O)C(=O)N[C@H](C)C(=O)N[C@@H](CC(=O)O)C(=O)NCC(=O)N[C@H](CO)C(=O)N[C@@H]([C@@H](C)CC(=O)O)C(=O)N[C@@H](CC(=O)c3ccccc3N)C(=O)O[C@@H]2C)c1,MIC,Clostridioides difficile [1],2 mg/L
same,MIC,Staphylococcus aureus [2],0.125 mg/L
same,MIC,Enterococcus faecium,16 mg/L
same,MIC,Enterococcus faecalis,32 mg/L
same,survival at 0.5 mg/kg,Clostridioides difficile [30],60%
CN[C@H](CC(C)C)C(=O)N[C@H]1C(=O)N[C@@H](CC(N)=O)C(=O)N[C@H]2C(=O)N[C@H]3C(=O)N[C@H](C(=O)N[C@H](C(=O)O)c4cc(O)cc(O)c4-c4cc3ccc4O)[C@H](O)c3ccc(c(Cl)c3)Oc3cc2cc(c3O[C@@H]2O[C@H](CO)[C@@H](O)[C@H](O)[C@H]2O[C@H]2C[C@](C)(N)[C@H](O)[C@H](C)O2)Oc2ccc(cc2Cl)[C@H]1O [VANCOMYCIN],survival at 0.5 mg/kg,Clostridioides difficile [30],25%
same,MIC,Clostridioides difficile [31],≥ 4 mg/L
CCCCC[C@H]1CC[C@H](C(=O)N[C@@H](Cc2c[nH]c3ccccc23)C(=O)N[C@@H](CC(N)=O)C(=O)N[C@@H](CC(=O)O)C(=O)N[C@@H]2C(=O)NCC(=O)N[C@@H](CCCN)C(=O)N[C@H](CC(=O)O)C(=O)N[C@H](C)C(=O)N[C@@H](CC(=O)O)C(=O)NCC(=O)N[C@H](CO)C(=O)N[C@@H]([C@@H](C)CC(=O)O)C(=O)N[C@@H](CC(=O)c3ccccc3N)C(=O)O[C@@H]2C)CC1,MIC,Clostridioides difficile [1],0.5 mg/L
same,MIC,Staphylococcus aureus [2],0.5 mg/L
same,MIC,Enterococcus faecium,16 mg/L
same,MIC,Enterococcus faecalis,> 32 mg/L
same,survival at 0.5 mg/kg,Clostridioides difficile [30],60%
CCCCCc1ccc(/C(C)=C/C(=O)N[C@@H](Cc2c[nH]c3ccccc23)C(=O)N[C@H](CC(N)=O)C(=O)N[C@@H](CC(=O)O)C(=O)N[C@@H]2C(=O)NCC(=O)N[C@@H](CCCN)C(=O)N[C@@H](CC(=O)O)C(=O)N[C@H](C)C(=O)N[C@@H](CC(=O)O)C(=O)NCC(=O)N[C@H](CO)C(=O)N[C@@H]([C@@H](C)CC(=O)O)C(=O)N[C@@H](CC(=O)c3ccccc3N)C(=O)O[C@@H]2C)cc1,MIC,Bacteroides fragilis,>= 8192 ug ml-1
